Assay results reported in BindingDB's records for patent US12440484 (Chong Kun Dang Pharmaceutical, 2025).

What was measured:
Histone deacetylase 1 = Histone deacetylase 1 (Homo sapiens, UniProt Q13547); test: Identification of HDAC Enzyme Activity Inhibition (In Vitro)
Experimental: (§1) For a HDAC1 assay, samples were treated at a concentration of 100, 1000 and 10000 nM. For a HDAC6 assay, samples were treated at a concentration of 0.1, 1, 10, 100 and 1000 nM.

Histone deacetylase 6 = target: T1, Histone deacetylase 6 (Homo sapiens, UniProt Q9UBN7); test: as above
T1 sequence (Q9UBN7 whole entry): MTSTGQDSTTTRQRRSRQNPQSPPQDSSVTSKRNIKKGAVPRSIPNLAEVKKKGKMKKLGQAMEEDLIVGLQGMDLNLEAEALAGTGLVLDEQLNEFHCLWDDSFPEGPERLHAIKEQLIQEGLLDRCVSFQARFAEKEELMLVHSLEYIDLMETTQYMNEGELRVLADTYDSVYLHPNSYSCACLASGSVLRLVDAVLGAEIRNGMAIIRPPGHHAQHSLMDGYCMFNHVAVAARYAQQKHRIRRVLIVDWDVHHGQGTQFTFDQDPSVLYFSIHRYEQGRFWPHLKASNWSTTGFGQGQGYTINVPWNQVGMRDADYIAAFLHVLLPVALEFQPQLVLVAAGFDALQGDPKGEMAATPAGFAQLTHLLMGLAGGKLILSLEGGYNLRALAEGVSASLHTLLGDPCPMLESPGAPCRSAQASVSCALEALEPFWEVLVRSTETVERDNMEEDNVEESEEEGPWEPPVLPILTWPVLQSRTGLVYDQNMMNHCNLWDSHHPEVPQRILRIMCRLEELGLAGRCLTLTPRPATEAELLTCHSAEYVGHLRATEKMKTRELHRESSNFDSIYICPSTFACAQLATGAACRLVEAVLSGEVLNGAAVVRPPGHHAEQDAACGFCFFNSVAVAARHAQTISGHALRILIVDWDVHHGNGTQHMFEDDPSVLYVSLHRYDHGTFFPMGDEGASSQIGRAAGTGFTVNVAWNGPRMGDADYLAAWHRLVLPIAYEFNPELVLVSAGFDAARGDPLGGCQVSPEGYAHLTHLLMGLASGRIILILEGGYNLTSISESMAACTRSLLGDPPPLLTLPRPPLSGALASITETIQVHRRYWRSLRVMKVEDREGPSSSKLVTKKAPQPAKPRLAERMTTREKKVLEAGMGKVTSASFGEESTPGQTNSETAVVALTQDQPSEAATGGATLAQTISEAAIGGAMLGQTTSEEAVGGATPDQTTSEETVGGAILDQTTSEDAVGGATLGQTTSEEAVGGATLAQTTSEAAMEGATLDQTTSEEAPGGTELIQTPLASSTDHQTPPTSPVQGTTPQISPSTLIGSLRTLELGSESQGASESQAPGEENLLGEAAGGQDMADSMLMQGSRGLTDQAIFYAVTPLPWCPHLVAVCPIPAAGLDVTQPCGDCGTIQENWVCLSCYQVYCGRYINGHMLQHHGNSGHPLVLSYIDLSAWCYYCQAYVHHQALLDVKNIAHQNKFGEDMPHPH
Experimental: as §1

Sequence of Histone deacetylase 1 (Q13547 whole entry): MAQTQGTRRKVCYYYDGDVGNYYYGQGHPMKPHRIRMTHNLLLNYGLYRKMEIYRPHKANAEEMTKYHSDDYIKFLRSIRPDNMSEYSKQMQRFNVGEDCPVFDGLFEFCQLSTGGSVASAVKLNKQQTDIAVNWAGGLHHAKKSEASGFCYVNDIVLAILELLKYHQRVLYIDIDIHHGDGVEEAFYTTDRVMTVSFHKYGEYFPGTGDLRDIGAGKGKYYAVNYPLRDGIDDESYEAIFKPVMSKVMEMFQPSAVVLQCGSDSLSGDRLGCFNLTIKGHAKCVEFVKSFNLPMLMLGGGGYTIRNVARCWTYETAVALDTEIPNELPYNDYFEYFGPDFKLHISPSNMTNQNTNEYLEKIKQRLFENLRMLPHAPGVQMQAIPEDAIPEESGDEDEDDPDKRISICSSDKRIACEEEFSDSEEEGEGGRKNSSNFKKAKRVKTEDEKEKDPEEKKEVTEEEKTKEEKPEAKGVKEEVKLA

SMILES	IC50 (Histone deacetylase 1) [nM]	IC50 (Histone deacetylase 6) [nM]
CC1(C)C(=O)N(Cc2ccc(-c3nnc(C(F)F)o3)cn2)C(=O)c2ccc(N3CCCCC3)cc21 [US12440484, Compound 27]	> 10000	43
COCCN1CCC(c2ccc3c(c2)C(=O)N(Cc2ccc(-c4nnc(C(F)F)o4)cn2)C(=O)C3(C)C)CC1 [US12440484, Compound 151]	> 10000	33
CC1(C)C(=O)N(Cc2ccc(-c3nnc(C(F)F)o3)cn2)C(=O)c2ccc(N3CCN(CC(F)(F)F)CC3)cc21 [US12440484, Compound 141]	> 10000	52
O=c1c2ccccc2n(CCN2CCCCC2)c(=O)n1Cc1ccc(-c2nnc(C(F)F)o2)cc1F [US12440484, Compound 10]	> 10000	455
